Data reported in US9169254B2, “Spiroimidazolone derivative” (Chugai Seiyaku Kabushiki Kaisha, priority 2009, dated 2015).

target: T1, human PTH1 receptor (Homo sapiens, UniProt Q03431); test: In vitro cAMP signal activity in HKRK-B7 cells (LLC-PK1 cells overexpressing the human PTH1 receptor); assay type: cell-based; conditions: HKRK-B7 cells; compound at 1×10^−3 M; cAMP produced as percentage of that produced by hPTH(1-34) at 100 nM
T1 sequence (Q03431 27-593): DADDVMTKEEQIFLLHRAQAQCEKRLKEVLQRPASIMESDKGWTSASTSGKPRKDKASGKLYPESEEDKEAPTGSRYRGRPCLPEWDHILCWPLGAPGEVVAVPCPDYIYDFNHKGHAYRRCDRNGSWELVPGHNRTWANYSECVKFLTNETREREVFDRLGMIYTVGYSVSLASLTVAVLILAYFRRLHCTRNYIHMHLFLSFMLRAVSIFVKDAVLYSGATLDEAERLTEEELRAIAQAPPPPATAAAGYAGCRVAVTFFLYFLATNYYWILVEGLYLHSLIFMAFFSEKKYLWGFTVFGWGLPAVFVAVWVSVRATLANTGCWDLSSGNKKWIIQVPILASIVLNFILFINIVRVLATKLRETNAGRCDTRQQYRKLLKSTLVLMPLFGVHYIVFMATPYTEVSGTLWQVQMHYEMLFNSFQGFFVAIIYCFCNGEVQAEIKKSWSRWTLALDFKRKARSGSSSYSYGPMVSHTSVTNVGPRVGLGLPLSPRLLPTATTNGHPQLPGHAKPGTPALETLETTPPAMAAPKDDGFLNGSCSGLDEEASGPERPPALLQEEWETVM

| cAMP production activity (%) | SMILES |
| --- | --- |
| 76% | Cc1cc(C2=NC3(CCN(S(=O)(=O)CCc4ccc(C(=O)N(C)C)cc4C)CC3)C(=O)N2)ccc1Cl [Compound 95, 4-{2-[2-(4-chloro-3-methyl-phenyl)-4-oxo-1,3,8-triaza-spiro[4.5]dec-1-ene-8-sulfonyl]-ethyl}-3,N,N-trimethyl-benzamide] |
| 9.4% | Cc1cc2cc(C)c1CCS(=O)(=O)N1CCC3(CC1)N=C(CCCCCCCCCCC(=O)N2C)NC3=O [Compound 1448] |
| 96% | Cc1cc(C(=O)N2CCC(O)(CF)CC2)cc(C)c1CCS(=O)(=O)N1CCC2(CC1)N=C(C1CCC(C)CC1)NC2=O (stereo not drawn) [Compound 1383, 8-{2-[4-(4-fluoromethyl-4-hydroxy-piperidine-1-carbonyl)-2,6-dimethyl-phenyl]-ethanesulfonyl}-2-(4-methyl-cyclohexyl)-1,3,8-triaza-spiro[4.5]dec-1-en-4-one] |
| 66% | Cc1cc(C(=O)N2CCCC2)ccc1/C=C/S(=O)(=O)N1CCC2(CC1)N=C(c1cccc(C(F)(F)F)c1F)NC2=O [Compound 248, 2-(2-fluoro-3-trifluoromethyl-phenyl)-8-{(E)-2-[2-methyl-4-(pyrrolidine-1-carbonyl)-phenyl]-ethenesulfonyl}-1,3,8-triaza-spiro[4.5]dec-1-en-4-one] |
| 133% | Cc1cc(C(=O)N2CCC(C)(O)CC2)cc(C)c1CCS(=O)(=O)N1CCC2(CC1)N=C(c1ccc3c(c1)OC(F)(F)O3)NC2=O [Compound 1336, 2-(2,2-difluoro-benzo[1,3]dioxol-5-yl)-8-{2-[4-(4-hydroxy-4-methyl-piperidine-1-carbonyl)-2,6-dimethyl-phenyl]-ethanesulfonyl}-1,3,8-triaza-spiro[4.5]dec-1-en-4-one] |
| 69% | CC(=O)Nc1ccc(CCS(=O)(=O)N2CCC3(CC2)N=C(C2CCCCCC2)NC3=O)c(C)c1 [Compound 917, N-{4-[2-(2-Cycloheptyl-4-oxo-1,3,8-triaza-spiro[4.5]dec-1-ene-8-sulfonyl)-ethyl]-3-methyl-phenyl}-acetamide] |
| 55% | Cc1cc(CN(CCO)C(=O)OC(C)(C)C)ccc1CCS(=O)(=O)N1CCC2(CC1)N=C(C1CCCCC1)NC2=O [Compound 681, {4-[2-(2-Cyclohexyl-4-oxo-1,3,8-triaza-spiro[4.5]dec-1-ene-8-sulfonyl)-ethyl]-3-methyl-benzyl}-(2-hydroxy-ethyl)-carbamic acid tert-butyl ester] |
| 89% | Cc1cc(C(=O)N2CCC(O)(CF)CC2)cc(C)c1CCS(=O)(=O)N1CCC2(CC1)N=C(c1ccc3c(c1)OC(F)(F)O3)NC2=O [Compound 1275, 2-(2,2-difluoro-benzo[1,3]dioxol-5-yl)-8-{2-[4-(4-fluoromethyl-4-hydroxy-piperidine-1-carbonyl)-2,6-dimethyl-phenyl]-ethanesulfonyl}-1,3,8-triaza-spiro[4.5]dec-1-en-4-one] |
| 35% | O=C1NC(C2CCCCC2)=NC12CCN(S(=O)(=O)c1cccc3ccccc13)CC2 [Compound 57, 2-cyclohexyl-8-(naphthalene-1-sulfonyl)-1,3,8-triaza-spiro[4.5]dec-1-en-4-one] |
| 46% | O=C(CO)NCc1ccc(CCS(=O)(=O)N2CCC3(CC2)N=C(C2CCCCC2)NC3=O)cc1 [Compound 659, N-{4-[2-(2-cyclohexyl-4-oxo-1,3,8-triaza-spiro[4.5]dec-1-ene-8-sulfonyl)-ethyl]-benzyl}-2-hydroxy-acetamide] |
| 91% | Cc1cc(C2=NC3(CCN(S(=O)(=O)/C=C/c4c(C)cc(C(=O)N5CCC(O)(CF)CC5)cc4C)CC3)C(=O)N2)c(C)cc1F [Compound 1239, 2-(4-Fluoro-2,5-dimethyl-phenyl)-8-{(E)-2-[4-(4-fluoromethyl-4-hydroxy-piperidine-1-carbonyl)-2,6-dimethyl-phenyl]-ethenesulfonyl}-1,3,8-triaza-spiro[4.5]dec-1-en-4-one] |

Continued, molecule first:

| SMILES | cAMP production activity (%) |
| --- | --- |
| Cc1cc(C(=O)N(C)C)ccc1CCS(=O)(=O)N1CCC2(CC1)N=C(c1cccc(COCC(F)F)c1)NC2=O [Compound 169, 4-(2-{2-[3-(2,2-difluoro-ethoxymethyl)-phenyl]-4-oxo-1,3,8-triaza-spiro[4.5]dec-1-ene-8-sulfonyl}-ethyl)-3,N,N-trimethyl-benzamide] | 71% |
| Cc1cc(C(=O)N2CCC[C@H]2C(F)(F)F)ccc1CCS(=O)(=O)N1CCC2(CC1)N=C(c1cccc(C(F)(F)F)c1)NC2=O [Compound 354, 8-{2-[2-methyl-4-((S)-2-trifluoromethyl-pyrrolidine-1-carbonyl)-phenyl]-ethanesulfonyl}-2-(3-trifluoromethyl-phenyl)-1,3,8-triaza-spiro[4.5]dec-1-en-4-one] | 27% |
| O=C1NC(c2cccc(OC(F)(F)F)c2)=NC12CCN(S(=O)(=O)CCc1cccc3[nH]ccc13)CC2 [Compound 305, 8-[2-(1H-indol-4-yl)-ethanesulfonyl]-2-(3-trifluoromethoxy-phenyl)-1,3,8-triaza-spiro[4.5]dec-1-en-4-one] | 73% |
| COc1cccc(C2=NC3(CCN(S(=O)(=O)c4cccc(Cl)c4)CC3)C(=O)N2)c1 [Compound 5, 8-(3-chloro-benzenesulfonyl)-2-(3-methoxy-phenyl)-1,3,8-triaza-spiro[4.5]dec-1-en-4-one] | 2.5% |
| [2H]C([2H])([2H])C([2H])([2H])C([2H])([2H])C([2H])([2H])Oc1ccc(C2=NC3(CCN(S(=O)(=O)/C=C/c4c(C)cc(C(=O)N5CCC(O)(CF)CC5)cc4C)CC3)C(=O)N2)cc1C(F)(F)F [Compound 1261, 2-(4-[1,1,2,2,3,3,4,4,4-^2H9]butoxy-3-trifluoromethyl-phenyl)-8-{(E)-2-[4-(4-fluoromethyl-4-hydroxy-piperidine-1-carbonyl)-2,6-dimethyl-phenyl]-ethenesulfonyl}-1,3,8-triaza-spiro[4.5]dec-1-en-4-one] | 99% |
| Cc1cc(OCCC(O)CO)ccc1-c1ccc(S(=O)(=O)N2CCC3(CC2)N=C(c2ccc(F)c(C(F)(F)F)c2)NC3=O)s1 (stereo not drawn) [Compound 341, 8-{5-[4-(3,4-Dihydroxy-butoxy)-2-methyl-phenyl]-thiophene-2-sulfonyl}-2-(4-fluoro-3-trifluoromethyl-phenyl)-1,3,8-triaza-spiro[4.5]dec-1-en-4-one] | 62% |
| O=C1NC(c2cccc(C(F)(F)F)c2)=NC12CCN(S(=O)(=O)/C=C/c1cccc3c1ccn3C[C@H](O)CO)CC2 [Compound 524, 8-{(E)-2-[1-((S)-2,3-dihydroxy-propyl)-1H-indol-4-yl]-ethenesulfonyl}-2-(3-trifluoromethyl-phenyl)-1,3,8-triaza-spiro[4.5]dec-1-en-4-one] | 90% |
| Cc1cc(S(=O)(=O)NCCCO)ccc1/C=C/S(=O)(=O)N1CCC2(CC1)N=C(c1cccc(OC(F)(F)F)c1)NC2=O [Compound 224, N-(3-Hydroxy-propyl)-3-methyl-4-{(E)-2-[4-oxo-2-(3-trifluoromethoxy-phenyl)-1,3,8-triaza-spiro[4.5]dec-1-ene-8-sulfonyl]-vinyl}-benzenesulfonamide] | 54% |
| Cc1cc(C(=O)N2CCC(C)(O)CC2)cc(C)c1/C=C/S(=O)(=O)N1CCC2(CC1)N=C(c1ccc(C(F)(F)F)c(OCC(F)(F)C(F)F)c1)NC2=O [Compound 1223, 8-{(E)-2-[4-(4-hydroxy-4-methyl-piperidine-1-carbonyl)-2,6-dimethyl-phenyl]-ethenesulfonyl}-2-[3-(2,2,3,3-tetrafluoro-propoxy)-4-trifluoromethyl-phenyl]-1,3,8-triaza-spiro[4.5]dec-1-en-4-one] | 54% |
| CCCCOC1CCC(C2=NC3(CCN(S(=O)(=O)CCc4ccc(NC(C)=O)cc4C)CC3)C(=O)N2)CC1 (stereo not drawn) [Compound 912, N-(4-{2-[2-(4-butoxy-cyclohexyl)-4-oxo-1,3,8-triaza-spiro[4.5]dec-1-ene-8-sulfonyl]-ethyl}-3-methyl-phenyl)-acetamide] | 98% |
| Cc1cc(N(C)C(=O)N(C)C)cc(C)c1/C=C/S(=O)(=O)N1CCC2(CC1)N=C(c1cccc(OC(F)(F)F)c1)NC2=O [Compound 1013, 1-(3,5-Dimethyl-4-{(E)-2-[4-oxo-2-(3-trifluoromethoxy-phenyl)-1,3,8-triaza-spiro[4.5]dec-1-ene-8-sulfonyl]-vinyl}-phenyl)-1,3,3-trimethyl-urea] | 48% |
| O=C(c1ccc2[nH]ccc2c1)N1CCCC(C2=NC3(CCN(S(=O)(=O)CCc4cccc5ccccc45)CC3)C(=O)N2)C1 (stereo not drawn) [Compound 428, 2-[1-(1H-Indol-5-carbonyl)-piperidin-3-yl]-8-(2-naphthalen-1-yl-ethanesulfonyl)-1,3,8-triaza-spiro[4.5]dec-1-en-4-one] | 8.8% |
| O=C1NC(c2cccc(C(F)(F)F)c2)=NC12CCN(S(=O)(=O)CCc1ccc(NCCO)cc1C(F)(F)F)CC2 [Compound 286, 8-{2-[4-(2-hydroxy-ethylamino)-2-trifluoromethyl-phenyl]-ethanesulfonyl}-2-(3-trifluoromethyl-phenyl)-1,3,8-triaza-spiro[4.5]dec-1-en-4-one] | 54% |
